Assay results from paper PMC10897476, “Pyridylpiperazine efflux pump inhibitor boosts in vivo antibiotic efficacy against K. pneumoniae” (EMBO Molecular Medicine, 2023).
“And” between values parts separate entries of the source, which are not always exact repeats. Equal entries are not always repeated. Where two headings read alike, the source gives them in different places. Marks after values point to notes of the source that are not given here.

Key:
Format in all cases: cell-based, Klebsiella pneumoniae
[1] = test system: K. pneumoniae ATCC 43816 (WT); experiment: Checkerboard assay levofloxacin x EPI, WT strain; details: for checkerboard growth readout: ATCC43816 WT, EPI 0 µM; for MIC: Klebsiella pneumoniae; for Median REMA values (percentage resazurin turnover): median n=3; for Median REMA values (percentage resazurin turnover) / percentage resazurin turnover: listed as Lev; for percentage resazurin turnover: individual replicates
Experimental: (§1) MIC experiments were carried out according to the CLSI guidelines (CLSI [2023]). Overnight cultures were diluted to an OD600 = 0.001 in CAMHB followed by addition of efflux pump inhibitors (EPIs) at a final concentration of 100 µM. […] Plates were incubated at 37 °C for up to 20 h. Bacterial viability was evaluated using the resazurin microtitre assay (REMA) and measured by fluorescence using a Tecan Spaert multimode plate reader (Ex: 530 nm Em: 590 nm). MICs were defined as the concentration that prevented 90% of resazurin turnover compared to the non-treated bacteria.
(§2) Bacterial suspensions, incubation and plate readouts were carried out as described above.

[2] = test system: K. pneumoniae AcrB^V448E RamR^mut; experiment: Checkerboard assay levofloxacin x EPI, double mutant; details: ATCC43816 AcrBV448E ramRmut, EPI 0 µM
Experimental: as §1, §2

[3] = test system: K. pneumoniae AcrB^V448E; experiment: MIC of antibiotics with and without EPI (REMA), AcrB V448E mutant; details: for Minimum Inhibitory Concentration: K. pneumoniae AcrB^V448E
Experimental: as §1
Mutations in acrB or ramR identified in the BDM88855.HCl (1’) resistant mutant (a.k.a., KPJC11) were introduced individually into K. pneumoniae ATCC 43816 chromosome by allelic exchange (Cianfanelli et al, [2020]). Briefly, 1-kb PCR products centred around each point mutation were generated by amplifying acrB with primers RH1251 ([…][…]) and RH1252 ([…][…]) or ramR with primers RH1249 ([…][…]) and RH1250 ([…][…]) from KPJC11 genomic DNA. PCR fragments were cloned into pFOK (Cianfanelli et al, [2020]) using NEB-building kit ([New England Biolabs]) to generate pEP1533 and pEP1534. Correct plasmids were confirmed by sequencing and introduced into K. pneumoniae ATCC43816 WT via conjugation with the MFDpir+ E. coli donor strain. Exconjugants were selected on kanamycin (50 mg/L) plates at 37 °C and plasmid chromosomal integration was checked by PCR. […] The next day, cultures were diluted and plated onto LB agar. Isolated colonies were then patched onto LB plates with or without kanamycin (50 mg/L) and Km^S candidates were evaluated for correct allelic exchange via acrB or ramR sequencing and then WGS to confirm no additional mutations were introduced.

[4] = test system: K. pneumoniae AcrB^V448E; experiment: Checkerboard assay levofloxacin x EPI, AcrB V448E mutant; details: for checkerboard growth readout: ATCC43816 AcrBV448E, EPI 0 µM; for percentage resazurin turnover: listed as Lev
Experimental: as §1, §2

[5] = test system: K. pneumoniae RamR^mut (K124*stop); experiment: Checkerboard assay levofloxacin x EPI, RamR mutant; details: for checkerboard growth readout: ATCC43816 ramRmut, EPI 0 µM; for MIC: Klebsiella pneumoniae
Experimental: as §1, §2

[6] = Lev 0.24 ng/mL, BDM91288 0.00 uM
[7] = Lev 0.49 ng/mL, BDM91288 0.00 uM
[8] = Lev 0.98 ng/mL, BDM91288 0.00 uM
[9] = Lev 1.95 ng/mL, BDM91288 0.00 uM
[10] = Lev 3.91 ng/mL, BDM91288 0.00 uM
[11] = Lev 7.81 ng/mL, BDM91288 0.00 uM
[12] = Lev 15.63 ng/mL, BDM91288 0.00 uM
[13] = Lev 31.25 ng/mL, BDM91288 0.00 uM
[14] = Lev 62.50 ng/mL, BDM91288 0.00 uM
[15] = Lev 500.00 ng/mL, BDM91288 0.00 uM
[16] = Lev 1000 ng/mL, BDM91288 0.00 uM

C[C@H]1COc2c(N3CCN(C)CC3)c(F)cc3c(=O)c(C(=O)O)cn1c23 [Levofloxacin]
checkerboard growth readout ([1]; levofloxacin 4 ng/mL): 114 and 99
checkerboard growth readout ([1]; levofloxacin 8 ng/mL): 102 and 104
checkerboard growth readout ([1]; levofloxacin 15.625 ng/mL): 112 and 95
checkerboard growth readout ([1]; levofloxacin 31.25 ng/mL): 88 and 69
MIC ([1]; ATCC43816, read-out: levofloxacin MIC (checkerboard)): 0.0625 µg/mL
MIC ([1]; ATCC43816, read-out: levofloxacin boosted MIC (checkerboard)): 0.016 µg/mL
Median REMA values (percentage resazurin turnover) ([1]; Lev 0.24 ng/mL + EPI 0.00 uM): 82% and 111%
Median REMA values (percentage resazurin turnover) ([1]; Lev 0.49 ng/mL + EPI 0.00 uM): 103% and 87%
Median REMA values (percentage resazurin turnover) ([1]; Lev 0.98 ng/mL + EPI 0.00 uM): 102% and 101%
percentage resazurin turnover ([1]; Lev 1.95 ng/mL + EPI 0.00 uM): 92% and 97%
Median REMA values (percentage resazurin turnover) ([1]; Lev 1.95 ng/mL + EPI 0.00 uM): 101% and 92%
percentage resazurin turnover ([1]; Lev 3.91 ng/mL + EPI 0.00 uM): 128% and 114% and 108%
Median REMA values (percentage resazurin turnover) ([1]; Lev 3.91 ng/mL + EPI 0.00 uM): 99% and 114%
percentage resazurin turnover ([1]; Lev 7.81 ng/mL + EPI 0.00 uM): 102% and 106% and 72%
Median REMA values (percentage resazurin turnover) ([1]; Lev 7.81 ng/mL + EPI 0.00 uM): 104% and 102%
percentage resazurin turnover ([1]; Lev 15.63 ng/mL + EPI 0.00 uM): 100% and 112% and 143%
Median REMA values (percentage resazurin turnover) ([1]; Lev 15.63 ng/mL + EPI 0.00 uM): 95% and 112%
percentage resazurin turnover ([1]; Lev 31.25 ng/mL + EPI 0.00 uM): 88% and 76% and 139%
Median REMA values (percentage resazurin turnover) ([1]; Lev 31.25 ng/mL + EPI 0.00 uM): 69% and 88%
percentage resazurin turnover ([1]; Lev 62.50 ng/mL + EPI 0.00 uM): -0.208% and 0.0384% and 0.176%
Median REMA values (percentage resazurin turnover) ([1]; Lev 62.50 ng/mL + EPI 0.00 uM): -0.588% and 0.0384%
percentage resazurin turnover ([1]; Lev 500.00 ng/mL + EPI 0.00 uM): -0.171% and 0.0154% and 0.238%
Median REMA values (percentage resazurin turnover) ([1]; Lev 500.00 ng/mL + EPI 0.00 uM): -0.604% and 0.0154%
percentage resazurin turnover ([1]; Lev 1000 ng/mL + EPI 0.00 uM): -0.203% and 0.204% and -0.0468%
Median REMA values (percentage resazurin turnover) ([1]; Lev 1000 ng/mL + EPI 0.00 uM): -0.268% and -0.0468%
checkerboard growth readout ([2]; levofloxacin 4 ng/mL): 105 and 97
checkerboard growth readout ([2]; levofloxacin 8 ng/mL): 113 and 94
checkerboard growth readout ([2]; levofloxacin 15.625 ng/mL): 114 and 99
checkerboard growth readout ([2]; levofloxacin 31.25 ng/mL): 121 and 95
checkerboard growth readout ([2]; levofloxacin 62.5 ng/mL): 141 and 104
checkerboard growth readout ([2]; levofloxacin 250 ng/mL): 148 and 137
checkerboard growth readout ([2]; levofloxacin 500 ng/mL): 131 and 124
Minimum Inhibitory Concentration ([3]; + 100 µM 1'): 0.03 mg/L
Minimum Inhibitory Concentration ([3]; + 100 µM 5): 0.03 mg/L
Minimum Inhibitory Concentration ([3]; + 100 µM PAβN): 0.02^# mg/L
MIC ([3]; Klebsiella pneumoniae, read-out: Minimum Inhibitory Concentration): 0.04 µg/mL
checkerboard growth readout ([4]; levofloxacin 4 ng/mL): 107 and 101
checkerboard growth readout ([4]; levofloxacin 8 ng/mL): 111 and 91
checkerboard growth readout ([4]; levofloxacin 15.625 ng/mL): 117 and 89
checkerboard growth readout ([4]; levofloxacin 31.25 ng/mL): 91 and 81
Median REMA values [4, 6]: 88%
percentage resazurin turnover [4, 6]: 93% and 88% and 53%
Median REMA values ([4]; Lev 0.24 ng/mL, PABN 0.00 uM): 81%
percentage resazurin turnover ([4]; Lev 0.24 ng/mL, PABN 0.00 uM): 88% and 81% and 56%
Median REMA values [4, 7]: 105%
percentage resazurin turnover [4, 7]: 102% and 108% and 105%
Median REMA values ([4]; Lev 0.49 ng/mL, PABN 0.00 uM): 70%
percentage resazurin turnover ([4]; Lev 0.49 ng/mL, PABN 0.00 uM): 68% and 101% and 70%
Median REMA values [4, 8]: 98%
percentage resazurin turnover [4, 8]: 98% and 105% and 79%
Median REMA values ([4]; Lev 0.98 ng/mL, PABN 0.00 uM): 106%
percentage resazurin turnover ([4]; Lev 0.98 ng/mL, PABN 0.00 uM): 106% and 107% and 72%
Median REMA values [4, 9]: 108%
percentage resazurin turnover [4, 9]: 108% and 109% and 104%
Median REMA values ([4]; Lev 1.95 ng/mL, PABN 0.00 uM): 104%
percentage resazurin turnover ([4]; Lev 1.95 ng/mL, PABN 0.00 uM): 104% and 118% and 78%
Median REMA values [4, 10]: 107%
percentage resazurin turnover [4, 10]: 107% and 111% and 81%
Median REMA values ([4]; Lev 3.91 ng/mL, PABN 0.00 uM): 101%
percentage resazurin turnover ([4]; Lev 3.91 ng/mL, PABN 0.00 uM): 101% and 111% and 73%
Median REMA values [4, 11]: 111%
percentage resazurin turnover [4, 11]: 111% and 76%
Median REMA values ([4]; Lev 7.81 ng/mL, PABN 0.00 uM): 91%
percentage resazurin turnover ([4]; Lev 7.81 ng/mL, PABN 0.00 uM): 91% and 110% and 79%
Median REMA values [4, 12]: 117%
percentage resazurin turnover [4, 12]: 117% and 105%
Median REMA values ([4]; Lev 15.63 ng/mL, PABN 0.00 uM): 89%
percentage resazurin turnover ([4]; Lev 15.63 ng/mL, PABN 0.00 uM): 119% and 89% and 72%
Median REMA values [4, 13]: 91%
percentage resazurin turnover [4, 13]: 91% and 87% and 102%
Median REMA values ([4]; Lev 31.25 ng/mL, PABN 0.00 uM): 81%
percentage resazurin turnover ([4]; Lev 31.25 ng/mL, PABN 0.00 uM): 81% and 70%
Median REMA values [4, 14]: -0.206%
percentage resazurin turnover [4, 14]: -0.206% and -0.287% and -0.155%
Median REMA values ([4]; Lev 62.50 ng/mL, PABN 0.00 uM): -0.817%
percentage resazurin turnover ([4]; Lev 62.50 ng/mL, PABN 0.00 uM): -0.685% and -0.817% and -0.819%
Median REMA values [4, 15]: -0.289%
percentage resazurin turnover [4, 15]: -0.289% and -0.371% and 0.114%
Median REMA values ([4]; Lev 500.00 ng/mL, PABN 0.00 uM): -0.75%
percentage resazurin turnover ([4]; Lev 500.00 ng/mL, PABN 0.00 uM): -0.676% and -1% and -0.75%
Median REMA values [4, 16]: 0.0503%
percentage resazurin turnover [4, 16]: 0.0503% and -0.121% and 0.102%
Median REMA values ([4]; Lev 1000 ng/mL, PABN 0.00 uM): -0.383%
percentage resazurin turnover ([4]; Lev 1000 ng/mL, PABN 0.00 uM): -0.346% and -0.646% and -0.383%
checkerboard growth readout ([5]; levofloxacin 4 ng/mL): 106 and 109
checkerboard growth readout ([5]; levofloxacin 8 ng/mL): 110 and 118
checkerboard growth readout ([5]; levofloxacin 15.625 ng/mL): 111 and 109
checkerboard growth readout ([5]; levofloxacin 62.5 ng/mL): 111 and 123
checkerboard growth readout ([5]; levofloxacin 250 ng/mL): 61 and 91
MIC ([5]; read-out: levofloxacin MIC (checkerboard)): 0.5 µg/mL
MIC ([5]; read-out: levofloxacin boosted MIC (checkerboard)): 0.016 µg/mL
